# From patent US12187716B2, “TYK2 kinase inhibitors” (SAREUM LIMITED, priority 2018, dated 2025)
# pIC50: −log10 of the molar value. Read-outs that look alike come from different tables or passages of the source.
# Experiments:
# CYP2B6 = target: T1, CYP2B6 (Homo sapiens, UniProt P20813); experiment: Cytochrome P450 inhibition assay, CYP2B6; assay type: in vitro ADME; conditions: pooled human liver microsomes, probe Bupropion
# T1 construct: from tissue; host or cells: pooled human liver microsomes
# T1 sequence (P20813 1-491): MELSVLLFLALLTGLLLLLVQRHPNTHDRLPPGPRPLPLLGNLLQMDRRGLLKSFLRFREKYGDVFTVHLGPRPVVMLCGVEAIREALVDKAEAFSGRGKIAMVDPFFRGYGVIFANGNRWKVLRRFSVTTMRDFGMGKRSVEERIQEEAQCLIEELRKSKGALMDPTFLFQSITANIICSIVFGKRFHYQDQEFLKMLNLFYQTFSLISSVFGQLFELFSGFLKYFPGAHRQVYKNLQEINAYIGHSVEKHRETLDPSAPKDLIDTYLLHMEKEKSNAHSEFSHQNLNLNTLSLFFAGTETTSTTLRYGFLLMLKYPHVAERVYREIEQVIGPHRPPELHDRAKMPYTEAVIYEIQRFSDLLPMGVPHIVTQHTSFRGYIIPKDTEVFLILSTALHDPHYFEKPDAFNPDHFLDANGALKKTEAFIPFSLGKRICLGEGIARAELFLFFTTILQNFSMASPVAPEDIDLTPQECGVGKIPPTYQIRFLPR
# Method: (§1) The susceptibility of Compounds (2) and (3) to potential drug-drug interactions was tested by assaying their abilities to inhibit various cytochrome P450 isoforms. Prior art Compound B (see Example 3 above) was also tested as a comparative example. Test compounds, prepared and serially diluted in DMSO, were incubated at six concentrations (1% DMSO final) with pooled human liver microsomes in the presence of probe substrate for each isoform, and their effects on the metabolism of probe substrates determined. Incubations (in 96-well plates) were carried out at 37° C. in 0.1 M Tris buffer, pH 7.4, with reactions initiated by the addition of cofactor, NADPH (1 mM final concentration). At the specified times, reactions were terminated with acetonitrile containing an analytical internal standard, samples were centrifuged and the supernatant fractions were analysed for probe substrate metabolites by mass spectrometry (LC-MS/MS). The instrument responses were normalised to internal standard and compared to the appropriate solvent controls to determine the amount of metabolite formed from the probe substrates relative to these “uninhibited” controls. […] [table]
# CYP2C19 = target: T2, CYP2C19 (Homo sapiens, UniProt P33261); experiment: Cytochrome P450 inhibition assay, CYP2C19; assay type: in vitro ADME; conditions: pooled human liver microsomes, probe S-(+)-Mephenytoin
# T2 construct: from tissue; host or cells: pooled human liver microsomes
# T2 sequence (P33261 whole entry): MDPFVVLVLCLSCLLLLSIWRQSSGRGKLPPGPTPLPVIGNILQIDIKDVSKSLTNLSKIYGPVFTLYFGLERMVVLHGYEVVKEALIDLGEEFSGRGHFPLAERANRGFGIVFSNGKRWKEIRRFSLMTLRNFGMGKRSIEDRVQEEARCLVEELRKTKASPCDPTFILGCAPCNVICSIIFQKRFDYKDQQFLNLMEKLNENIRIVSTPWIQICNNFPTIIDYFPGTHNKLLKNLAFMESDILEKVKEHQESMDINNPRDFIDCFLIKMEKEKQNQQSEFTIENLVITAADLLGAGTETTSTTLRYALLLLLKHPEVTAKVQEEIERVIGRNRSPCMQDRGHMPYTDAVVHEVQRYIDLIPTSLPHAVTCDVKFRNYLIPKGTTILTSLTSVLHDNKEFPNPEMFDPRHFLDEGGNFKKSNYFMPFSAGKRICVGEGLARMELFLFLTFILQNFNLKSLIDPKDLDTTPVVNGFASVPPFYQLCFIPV
# Method: as §1
# CYP3A4 = target: T3, CYP3A4 (Homo sapiens, UniProt P08684); experiment: Cytochrome P450 inhibition assay, CYP3A4; assay type: in vitro ADME; conditions: pooled human liver microsomes
# T3 construct: from tissue; host or cells: pooled human liver microsomes
# T3 sequence (P08684 whole entry): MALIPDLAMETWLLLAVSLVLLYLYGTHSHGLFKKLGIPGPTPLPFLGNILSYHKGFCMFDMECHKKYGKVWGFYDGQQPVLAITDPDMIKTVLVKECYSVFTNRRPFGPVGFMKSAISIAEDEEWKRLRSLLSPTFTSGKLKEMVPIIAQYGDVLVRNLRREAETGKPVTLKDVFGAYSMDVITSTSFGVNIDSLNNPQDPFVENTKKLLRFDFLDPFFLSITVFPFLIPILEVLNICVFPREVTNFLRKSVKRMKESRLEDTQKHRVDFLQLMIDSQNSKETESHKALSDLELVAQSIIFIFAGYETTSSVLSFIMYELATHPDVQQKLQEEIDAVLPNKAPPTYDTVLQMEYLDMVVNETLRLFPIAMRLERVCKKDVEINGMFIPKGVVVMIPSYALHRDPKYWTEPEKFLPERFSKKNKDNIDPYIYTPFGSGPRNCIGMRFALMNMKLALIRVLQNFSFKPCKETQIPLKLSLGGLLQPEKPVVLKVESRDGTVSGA
# Method: as §1
# hERG potassium channel = target: T4, hERG potassium channel (Homo sapiens, UniProt Q12809); experiment: hERG channel inhibition assay (hERG-HEK cells, Sophion Qube); assay type: cell-based; conditions: for pIC50: hERG-HEK cells, tail current, room temperature; for inhibition at 30 uM: human, hERG-HEK stably transfected cell line, Max Conc. 30 uM
# T4 construct: expressed in transfected cells; host or cells: hERG-HEK stably transfected cell line
# T4 sequence (Q12809 whole entry): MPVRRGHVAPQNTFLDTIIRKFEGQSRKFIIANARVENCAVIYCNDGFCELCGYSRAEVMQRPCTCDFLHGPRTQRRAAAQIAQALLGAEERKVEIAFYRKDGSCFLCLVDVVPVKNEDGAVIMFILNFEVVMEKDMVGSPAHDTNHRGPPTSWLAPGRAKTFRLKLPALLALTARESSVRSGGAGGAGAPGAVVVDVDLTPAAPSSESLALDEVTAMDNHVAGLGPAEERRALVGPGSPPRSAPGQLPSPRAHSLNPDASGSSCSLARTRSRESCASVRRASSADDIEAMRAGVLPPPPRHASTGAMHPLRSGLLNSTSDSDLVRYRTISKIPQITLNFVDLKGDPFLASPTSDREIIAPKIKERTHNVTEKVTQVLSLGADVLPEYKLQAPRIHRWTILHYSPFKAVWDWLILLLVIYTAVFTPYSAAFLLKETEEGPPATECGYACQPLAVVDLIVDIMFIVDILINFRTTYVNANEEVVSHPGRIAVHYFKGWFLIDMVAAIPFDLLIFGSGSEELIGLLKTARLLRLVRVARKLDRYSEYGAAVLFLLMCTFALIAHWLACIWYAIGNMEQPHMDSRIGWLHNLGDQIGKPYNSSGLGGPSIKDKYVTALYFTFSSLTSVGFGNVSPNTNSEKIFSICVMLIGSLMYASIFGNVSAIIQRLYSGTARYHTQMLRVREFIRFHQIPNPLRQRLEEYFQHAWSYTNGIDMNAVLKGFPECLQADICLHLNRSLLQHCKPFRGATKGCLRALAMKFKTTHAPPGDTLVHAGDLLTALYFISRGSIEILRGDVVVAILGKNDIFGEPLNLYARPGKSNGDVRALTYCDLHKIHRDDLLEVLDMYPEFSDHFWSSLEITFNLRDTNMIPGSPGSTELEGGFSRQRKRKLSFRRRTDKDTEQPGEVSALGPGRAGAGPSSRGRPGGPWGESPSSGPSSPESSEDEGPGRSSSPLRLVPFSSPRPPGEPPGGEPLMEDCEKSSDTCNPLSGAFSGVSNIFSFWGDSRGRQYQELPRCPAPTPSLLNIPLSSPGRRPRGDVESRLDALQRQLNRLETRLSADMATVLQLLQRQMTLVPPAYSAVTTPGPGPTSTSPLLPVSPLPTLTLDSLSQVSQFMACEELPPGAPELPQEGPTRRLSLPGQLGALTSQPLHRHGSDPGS
# Method: The potential for compounds to inhibit the hERG potassium channel was determined using a hERG-HEK stably transfected cell line on the Sophion Qube automated electrophysiology platform. The assay was performed at room temperature and recordings of the hERG tail current from individual cells was made using single-hole QChips.
# The potency (IC50) of test compounds to inhibit the hERG channel was determined from a concentration-response curve generated from 8 test compound concentrations with up to 4 replicates per concentration.
# The compound concentration was added to the test well twice to ensure complete exchange of the external buffer with the test compound. In total, compound was applied to the well for >7 minutes.
# [1] = Hepatocyte stability assay, rat; assay type: in vitro ADME; conditions: male, Sprague-Dawley, pooled hepatocytes, 37° C.
# Method: Test and control compounds were incubated with hepatocytes at 37° C. Aliquots were removed at 6 timepoints over a one hour period. Samples were centrifuged and the supernatant fractions analysed for parent compound by mass spectrometry (LC-MS/MS).
# The amount of compound remaining (expressed as %) was determined from the MS response in each sample relative to that in the T=0 samples, and used to determine the half-life and intrinsic clearance of the compound.
# [2] = test system: IL-17F production in Th17 cells; experiment: IL-17F production inhibition in Th17 cells derived from human peripheral blood CD4CD45RO+ cells; assay type: cell-based
# Method: (§2) Fresh human Peripheral blood CD4CD45RO+ cells were purchased commercially (Generon, UK); 3 separate vials from 3 different volunteers for experimental replicates. Cells were grown in T-cell medium (Thermo Fisher) containing 10 ng/ml recombinant human IL-1B (R&D Systems), IL-23 (R&D Systems), TGF-B1 (R&D Systems) and 50 ng/ml IL-6 (R&D Systems) together with anti-CD3/CD28 magnetic Dynabeads (Thermo Fisher). These were grown for 11 days to induce expansion of Th17 cells. Prior to plating for assays cells were grown overnight in T-cell medium supplemented with human serum (1%) overnight. Media was removed and replaced with unsupplemented RPMI for 4 h prior to assay.
# To measure IL-17F levels, 200,000 cells were plated into a 96 well plate and preincubated with compounds for 30 minutes followed by stimulation with recombinant IL-23 at 6.25 ng/ml and recombinant human IL-1B at 0.1 ng/ml for 48 h. Supernatants were removed and IL-17F levels measured using a commercially available ELISA kit (Thermo Fisher; BMS2037-2).
# (§3) ELISAs were carried out according to manufacturers instructions and absorbance read using a microplate reader (Thermo Fisher; Varioskan). Data was normalised to the response in untreated samples using the formula: % of control=((Stimulated sample Conc.−unstimulated sample Conc.)×100)/(Control stimulated Conc.−control unstimulated Conc.)
# (§4) Graphpad Prism 8.1.0 was used to calculate I050 values using a Nonlinear 4 parameter logistic regression model (4PL).
# [3] = test system: STAT3 phosphorylation in Th17 cells; experiment: Inhibition of STAT3 phosphorylation in Th17 cells derived from human peripheral blood CD4CD45RO+ cells; assay type: cell-based
# Method: as §2
# To measure pSTAT3 levels, 200,000 cells were plated into a 96 well plate and preincubated with compounds for 30 minutes followed by stimulation with recombinant IL-23 at 12.5 ng/ml for 15 minutes then lysed using cell lysis buffer. pSTAT3 levels in the lysates were measured using a commercially available ELISA kit (Thermo Fisher; 85-86102-11).
# as §3, §4
# TYK2 = TYK2 (Homo sapiens, UniProt P29597); experiment: TYK2 kinase inhibition assay (33P-ATP filter binding, Reaction Biology)
# TYK2, sequence (P29597 833-1187): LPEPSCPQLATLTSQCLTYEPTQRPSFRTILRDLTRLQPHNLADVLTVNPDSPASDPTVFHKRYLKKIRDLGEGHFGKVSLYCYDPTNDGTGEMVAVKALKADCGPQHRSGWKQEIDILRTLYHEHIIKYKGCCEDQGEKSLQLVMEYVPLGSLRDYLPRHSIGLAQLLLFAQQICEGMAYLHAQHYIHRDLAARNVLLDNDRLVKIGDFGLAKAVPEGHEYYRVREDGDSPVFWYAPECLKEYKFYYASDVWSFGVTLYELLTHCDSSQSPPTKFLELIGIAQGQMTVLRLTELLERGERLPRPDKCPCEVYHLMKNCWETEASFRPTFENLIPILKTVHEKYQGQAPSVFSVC
# JAK2 = JAK2 (Homo sapiens, UniProt O60674); experiment: JAK2 kinase inhibition assay (33P-ATP filter binding, Reaction Biology); conditions: for selectivity for TYK2 compared to JAK2: biochemical assays; for Selectivity v TYK2: JAK2: ratio of JAK2 IC50 to TYK2 IC50
# JAK2, sequence (O60674 809-1132): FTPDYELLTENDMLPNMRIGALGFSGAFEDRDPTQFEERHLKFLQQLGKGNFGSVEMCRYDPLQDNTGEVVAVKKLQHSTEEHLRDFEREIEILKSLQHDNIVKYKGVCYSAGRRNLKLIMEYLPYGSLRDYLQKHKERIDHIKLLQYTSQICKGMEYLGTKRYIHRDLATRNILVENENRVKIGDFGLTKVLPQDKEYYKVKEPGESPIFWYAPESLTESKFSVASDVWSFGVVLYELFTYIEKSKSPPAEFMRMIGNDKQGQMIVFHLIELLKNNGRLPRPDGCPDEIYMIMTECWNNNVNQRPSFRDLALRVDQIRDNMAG
# [4] = probe Midazolam, read-out: CYP3A4 (MID) IC50
# [5] = probe Testosterone, read-out: CYP3A4 (Test) IC50
# [6] = IL-23 6.25 ng/ml + IL-1B 0.1 ng/ml, 48 h, Donor 1, read-out: IL17-F Production Inhibition IC50, Donor 1
# [7] = IL-23 6.25 ng/ml + IL-1B 0.1 ng/ml, 48 h, Donor 2, read-out: IL17-F Production Inhibition IC50, Donor 2
# [8] = IL-23 6.25 ng/ml + IL-1B 0.1 ng/ml, 48 h, Donor 3, read-out: IL17-F Production Inhibition IC50, Donor 3
# [9] = average of 3 donors, read-out: IL17-F Production Inhibition IC50, Average
# [10] = 0.25 h, IL-23 12.5 ng/ml, 15 minutes, Donor 1, read-out: Inhibition of STAT3 phosphorylation IC50, Donor 1
# [11] = 0.25 h, IL-23 12.5 ng/ml, 15 minutes, Donor 2, read-out: Inhibition of STAT3 phosphorylation IC50, Donor 2
# [12] = 0.25 h, IL-23 12.5 ng/ml, 15 minutes, Donor 3, read-out: Inhibition of STAT3 phosphorylation IC50, Donor 3
# [13] = average of 3 donors, read-out: Inhibition of STAT3 phosphorylation IC50, Average
Compound,pIC50 (CYP2B6),pIC50 (CYP2C19),pIC50 (CYP3A4; [4]),pIC50 (CYP3A4; [5]),pIC50 (hERG potassium channel),inhibition at 30 uM (hERG potassium channel) [%],hepatocyte CLint [1] [µL/min/1e6 cells],"pIC50 [2, 6]","pIC50 [2, 7]","pIC50 [2, 8]","pIC50 [2, 9]","pIC50 [3, 10]","pIC50 [3, 11]","pIC50 [3, 12]","pIC50 [3, 13]",pIC50 (TYK2),pIC50 (JAK2),selectivity for TYK2 compared to JAK2 (JAK2),Selectivity v TYK2: JAK2 (JAK2),further results
"NC(=O)c1nc(-c2c(Cl)cccc2Cl)oc1Nc1ccc(C(=O)N2CCOCC2)cc1 [Comparative Compound B, 2-(2,6-dichloro-phenyl)-5-[4-(morpholine-4-carbonyl)-phenylamino]-oxazole-4-carboxylic acid amide, reference compound]",< 4.52,< 4.52,< 4.52,< 4.52,~4.52,50.5,104,6.61,6.66,6.83,6.69,6.95,7.77,7.27,7.21,8.29,,,,
NC(=O)c1nc(-c2c(Cl)cccc2Cl)oc1Nc1ccc(C(=O)N2CCS(=O)(=O)CC2)cc1 [Compound (2)],< 4.52,< 4.52,< 4.52,< 4.52,< 4.52,38.6,50,6.93,6.87,7.19,6.98,7.16,7.54,7.26,7.29,8.72,7.30,approximately 25 fold,26.3,
NC(=O)c1nc(-c2c(Cl)cccc2Cl)oc1Nc1ccc(C(=O)N2CCS(=O)(=O)CC2)c(F)c1 [Compound (3)],< 4.52,4.54,< 4.52,< 4.52,< 4.52,31.5,53.8,7.24,6.26,6.98,6.63,6.80,7.54,7.04,7.04,8.33,6.82,approximately 32 fold,32.5,half-life ([1]; read-out: Rat T1/2): 28.5 min; Selectivity v TYK2: TYK2 (TYK2; ratio of IC50 to TYK2 IC50): 1
